Experimental data taken from patent US6355799B1, “Substituted benzene compounds, process for their preparation, and herbicidal and defoliant compositions containing them” (ISK Americas Incorporated, priority 1997, dated 2002).

What was measured:
Format in all cases: in vivo
[1] = system: redroot pigweed (Amaranthus retroflexus, AMARE); assay: Post-emerge test, greenhouse herbicide activity screening; details: post-emerge; for phytotoxicity rating AMARE: 14 days after application; for Post-emerge Herbicidal Activity AMARE: phytotoxicity rating 0-100 at 14 days after application
How it was run: (§1)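 Compounds in acetone were track-sprayed at 187 l/ha, 15–1000 g ai/ha, onto sandy loam pots. Pre-emerge seeds were sown one day before spraying, with surface watering afterwards. Post-emerge plants were at the 2–3 leaf stage and sprayed with 0.25% v/v non-ionic surfactant. Injury was rated 0–100 at 14 days.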

[2] = system: barnyardgrass (Echinochloa crus-galli, ECHCG); assay: as above; details: post-emerge; for phytotoxicity rating ECHCG: 14 days after application, rating scale 0-100; for Post-emerge Herbicidal Activity ECHCG: phytotoxicity rating 0-100 at 14 days after application
How it was run: as §1

[3] = system: johnsongrass (Sorghum halepense, SORHA); assay: as above; details: post-emerge; for phytotoxicity rating SORHA: 14 days after application, rating scale 0-100; for Post-emerge Herbicidal Activity SORHA: phytotoxicity rating 0-100 at 14 days after application
How it was run: as §1

[4] = system: large crabgrass (Digitaria sanguinalis, DIGSA); assay: as above; details: post-emerge; for phytotoxicity rating DIGSA: 14 days after application, rating scale 0-100; for Post-emerge Herbicidal Activity DIGSA: phytotoxicity rating 0-100 at 14 days after application
How it was run: as §1

[5] = system: ivyleaf morningglory (Ipomoea hederacea, IPOHE); assay: as above; details: post-emerge; for phytotoxicity rating IPOHE: 14 days after application, rating scale 0-100; for Post-emerge Herbicidal Activity IPOHE: phytotoxicity rating 0-100 at 14 days after application
How it was run: as §1

[6] = system: green foxtail (Setaria viridis, SETVI); assay: as above; details: post-emerge; for phytotoxicity rating SETVI: 14 days after application, rating scale 0-100; for Post-emerge Herbicidal Activity SETVI: phytotoxicity rating 0-100 at 14 days after application
How it was run: as §1

[7] = system: lambsquarters (Chenopodium album, CHEAL); assay: as above; details: post-emerge; for phytotoxicity rating CHEAL: 14 days after application, rating scale 0-100; for Post-emerge Herbicidal Activity CHEAL: phytotoxicity rating 0-100 at 14 days after application
How it was run: as §1

[8] = system: velvetleaf (Abutilon theophrasti, ABUTH); assay: as above; details: post-emerge; for phytotoxicity rating ABUTH: 14 days after application, rating scale 0-100; for Post-emerge Herbicidal Activity ABUTH: phytotoxicity rating 0-100 at 14 days after application
How it was run: as §1

[9] = system: sicklepod (Cassia obtusifolia, CASOB); assay: as above; details: post-emerge; for phytotoxicity rating CASOB: 14 days after application, rating scale 0-100; for Post-emerge Herbicidal Activity CASOB: phytotoxicity rating 0-100 at 14 days after application
How it was run: as §1

[10] = system: redroot pigweed (Amaranthus retroflexus, AMARE); assay: Pre-emerge test, greenhouse herbicide activity screening
How it was run: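 Rating: 0–100 visual injury, 14 DAA. Application: acetone, 187 l/ha, 15–1000 g ai/ha, flat-fan track sprayer with nozzle 40–45 cm above soil or canopy. Post-emerge runs used 0.25% v/v surfactant on 2–3 leaf plants.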

[11] = system: common ragweed (Ambrosia artemisizfolia L., AMBEL); assay: as above
How it was run: (§2)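 Sandy loam pots; pre-emerge: sown 1 d pre-spray, surface-watered after, then bottom-watered. Post-emerge: sown 8–21 d before, 2–3 leaf stage, + 0.25% v/v NIS, bottom-watered. Acetone, 187 l/ha track spray, 15–1000 g ai/ha. 0–100 injury score, day 14.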

[12] = system: barnyardgrass (Echinochloa crus-galli, ECHCG); assay: as above
How it was run: as §2

[13] = system: johnsongrass (Sorghum halepense, SORHA); assay: as above
How it was run: as §2

[14] = system: large crabgrass (Digitaria sanguinalis, DIGSA); assay: as above
How it was run: as §2

[15] = system: ivyleaf morningglory (Ipomoea hederacea, IPOHE); assay: as above
How it was run: as §2

[16] = system: green foxtail (Setaria viridis, SETVI); assay: as above
How it was run: as §2

[17] = system: lambsquarters (Chenopodium album, CHEAL); assay: as above
How it was run: as §2

[18] = system: velvetleaf (Abutilon theophrasti, ABUTH); assay: as above
How it was run: as §2

[19] = system: sicklepod (Cassia obtusifolia, CASOB); assay: as above
How it was run: as §2

[20] = system: field corn (Zea mays L., var. Dekalb 535, CORN); assay: Post-emerge test, crop safety; details: post-emerge; for phytotoxicity rating CORN (crop damage): 14 days after application, rating scale 0-100; for Post-emerge Herbicidal Activity CORN: crop damage rating 0-100 at 14 days after application
How it was run: as §2

[21] = system: upland rice (Oryza sp., var. Tebonnet, RICE); assay: Post-emerge test, crop safety; details: post-emerge; for phytotoxicity rating RICE (crop damage): 14 days after application, rating scale 0-100; for Post-emerge Herbicidal Activity RICE: crop damage rating 0-100 at 14 days after application
How it was run: as §2

[22] = system: field corn (Zea mays L., var. Dekalb 535, CORN); assay: Pre-emerge test, crop safety
How it was run: (§3)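 Herbicidal damage is scored 0 (none) to 100 (complete plant death) two weeks after a simulated field spray. Rates span 15–1000 g ai/ha, delivered in acetone at 187 l/ha. For post-emergence treatments, plants have 2–3 leaves and the spray carries 0.25% v/v non-ionic surfactant.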

[23] = system: upland rice (Oryza sp., var. Tebonnet, RICE); assay: Pre-emerge test, crop safety
How it was run: as §3

[24] = 63 g ai/ha, phytotoxicity rating 0-100, 14 days after application
[25] = 250 g ai/ha, phytotoxicity rating 0-100, 14 days after application
[26] = 63 g ai/ha, crop damage rating 0-100, 14 days after application
[27] = 250 g ai/ha, crop damage rating 0-100, 14 days after application
[28] = pre-emerge, rate 63 g ai/ha, phytotoxicity rating 0-100 at 14 days after application
[29] = pre-emerge, rate 250 g ai/ha, phytotoxicity rating 0-100 at 14 days after application
[30] = crop damage, pre-emerge, rate 63 g ai/ha, phytotoxicity rating 0-100 at 14 days after application
[31] = crop damage, pre-emerge, rate 250 g ai/ha, phytotoxicity rating 0-100 at 14 days after application

Compound: Cn1c(C(F)(F)F)cc(=O)n(-c2ccc(Cl)cc2NC(=O)Oc2ccccc2)c1=O [4-50]
- phytotoxicity rating AMARE ([1]; 63 g ai/ha, rating scale 0-100 (0 no damage, 100 complete death)): 30
- phytotoxicity rating AMARE ([1]; 250 g ai/ha, rating scale 0-100): 70
- phytotoxicity rating ECHCG ([2]; 63 g ai/ha): 0
- phytotoxicity rating ECHCG ([2]; 250 g ai/ha): 0
- phytotoxicity rating SORHA ([3]; 63 g ai/ha): 0
- phytotoxicity rating SORHA ([3]; 250 g ai/ha): 0
- phytotoxicity rating DIGSA ([4]; 63 g ai/ha): 0
- phytotoxicity rating DIGSA ([4]; 250 g ai/ha): 0
- phytotoxicity rating IPOHE ([5]; 63 g ai/ha): 30
- phytotoxicity rating IPOHE ([5]; 250 g ai/ha): 90
- phytotoxicity rating SETVI ([6]; 63 g ai/ha): 0
- phytotoxicity rating SETVI ([6]; 250 g ai/ha): 0
- phytotoxicity rating CHEAL ([7]; 63 g ai/ha): 40
- phytotoxicity rating CHEAL ([7]; 250 g ai/ha): 95
- phytotoxicity rating ABUTH ([8]; 63 g ai/ha): 60
- phytotoxicity rating ABUTH ([8]; 250 g ai/ha): 95
- phytotoxicity rating CASOB ([9]; 63 g ai/ha): 0
- phytotoxicity rating CASOB ([9]; 250 g ai/ha): 20
- Pre-emerge Herbicidal Activity AMARE [10, 24]: 20
- Pre-emerge Herbicidal Activity AMARE [10, 25]: 100
- Pre-emerge Herbicidal Activity AMBEL [11, 24]: 0
- Pre-emerge Herbicidal Activity AMBEL [11, 25]: 0
- Pre-emerge Herbicidal Activity ECHCG [12, 24]: 0
- Pre-emerge Herbicidal Activity ECHCG [12, 25]: 0
- Pre-emerge Herbicidal Activity SORHA [13, 24]: 0
- Pre-emerge Herbicidal Activity SORHA [13, 25]: 0
- Pre-emerge Herbicidal Activity DIGSA [14, 24]: 0
- Pre-emerge Herbicidal Activity DIGSA [14, 25]: 30
- Pre-emerge Herbicidal Activity IPOHE [15, 24]: 0
- Pre-emerge Herbicidal Activity IPOHE [15, 25]: 30
- Pre-emerge Herbicidal Activity SETVI [16, 24]: 0
- Pre-emerge Herbicidal Activity SETVI [16, 25]: 10
- Pre-emerge Herbicidal Activity CHEAL [17, 24]: 40
- Pre-emerge Herbicidal Activity CHEAL [17, 25]: 100
- Pre-emerge Herbicidal Activity ABUTH [18, 24]: 20
- Pre-emerge Herbicidal Activity ABUTH [18, 25]: 100
- Pre-emerge Herbicidal Activity CASOB [19, 24]: 0
- Pre-emerge Herbicidal Activity CASOB [19, 25]: 0
- phytotoxicity rating CORN (crop damage) ([20]; 63 g ai/ha): 0
- phytotoxicity rating CORN (crop damage) ([20]; 250 g ai/ha): 10
- phytotoxicity rating RICE (crop damage) ([21]; 63 g ai/ha): 0
- phytotoxicity rating RICE (crop damage) ([21]; 250 g ai/ha): 0
- Pre-emerge Herbicidal Activity CORN [22, 26]: 0
- Pre-emerge Herbicidal Activity CORN [22, 27]: 0
- Pre-emerge Herbicidal Activity RICE [23, 26]: 0
- Pre-emerge Herbicidal Activity RICE [23, 27]: 10

Compound: COc1c(Cl)cc(F)c(-n2ncc(C(F)(F)F)c(C)c2=O)c1NC(=O)c1ccc2ccccc2c1 [11-13]
- Post-emerge Herbicidal Activity AMARE ([1]; 63 g ai/ha): 100
- Post-emerge Herbicidal Activity AMARE ([1]; 250 g ai/ha): 100
- Post-emerge Herbicidal Activity ECHCG ([2]; 63 g ai/ha): 65
- Post-emerge Herbicidal Activity ECHCG ([2]; 250 g ai/ha): 55
- Post-emerge Herbicidal Activity SORHA ([3]; 63 g ai/ha): 0
- Post-emerge Herbicidal Activity SORHA ([3]; 250 g ai/ha): 15
- Post-emerge Herbicidal Activity DIGSA ([4]; 63 g ai/ha): 40
- Post-emerge Herbicidal Activity DIGSA ([4]; 250 g ai/ha): 60
- Post-emerge Herbicidal Activity IPOHE ([5]; 63 g ai/ha): 98
- Post-emerge Herbicidal Activity IPOHE ([5]; 250 g ai/ha): 98
- Post-emerge Herbicidal Activity SETVI ([6]; 63 g ai/ha): 55
- Post-emerge Herbicidal Activity SETVI ([6]; 250 g ai/ha): 40
- Post-emerge Herbicidal Activity CHEAL ([7]; 63 g ai/ha): 100
- Post-emerge Herbicidal Activity CHEAL ([7]; 250 g ai/ha): 100
- Post-emerge Herbicidal Activity ABUTH ([8]; 63 g ai/ha): 95
- Post-emerge Herbicidal Activity ABUTH ([8]; 250 g ai/ha): 100
- Post-emerge Herbicidal Activity CASOB ([9]; 63 g ai/ha): 85
- Post-emerge Herbicidal Activity CASOB ([9]; 250 g ai/ha): 85
- Pre-emerge Herbicidal Activity AMARE [10, 28]: 100
- Pre-emerge Herbicidal Activity AMARE [10, 29]: 10
- Pre-emerge Herbicidal Activity AMBEL [11, 28]: 30
- Pre-emerge Herbicidal Activity AMBEL [11, 29]: 60
- Pre-emerge Herbicidal Activity ECHCG [12, 28]: 30
- Pre-emerge Herbicidal Activity ECHCG [12, 29]: 80
- Pre-emerge Herbicidal Activity SORHA [13, 28]: 0
- Pre-emerge Herbicidal Activity SORHA [13, 29]: 40
- Pre-emerge Herbicidal Activity DIGSA [14, 28]: 60
- Pre-emerge Herbicidal Activity DIGSA [14, 29]: 100
- Pre-emerge Herbicidal Activity IPOHE [15, 28]: 65
- Pre-emerge Herbicidal Activity IPOHE [15, 29]: 80
- Pre-emerge Herbicidal Activity SETVI [16, 28]: 70
- Pre-emerge Herbicidal Activity SETVI [16, 29]: 100
- Pre-emerge Herbicidal Activity CHEAL [17, 28]: 100
- Pre-emerge Herbicidal Activity CHEAL [17, 29]: 100
- Pre-emerge Herbicidal Activity ABUTH [18, 28]: 95
- Pre-emerge Herbicidal Activity ABUTH [18, 29]: 100
- Pre-emerge Herbicidal Activity CASOB [19, 28]: 0
- Pre-emerge Herbicidal Activity CASOB [19, 29]: 85
- Post-emerge Herbicidal Activity CORN ([20]; 63 g ai/ha): 45
- Post-emerge Herbicidal Activity CORN ([20]; 250 g ai/ha): 45
- Post-emerge Herbicidal Activity RICE ([21]; 63 g ai/ha): 45
- Post-emerge Herbicidal Activity RICE ([21]; 250 g ai/ha): 65
- Pre-emerge Herbicidal Activity CORN [22, 30]: 0
- Pre-emerge Herbicidal Activity CORN [22, 31]: 0
- Pre-emerge Herbicidal Activity RICE [23, 30]: 0
- Pre-emerge Herbicidal Activity RICE [23, 31]: 15
